{"source": "patent US20250213700A1", "about": "“COMPOUNDS, COMPOSITIONS, AND METHODS FOR CELL-SPECIFIC PHARMACOLOGY” (Duke University, priority 2022, published 2025)", "key": {"[1]": {"test_system": "D1-Cre mice with +HTP or ddHTP in left dorsal striatum", "test": "open-field turning (locomotor) assay, unilateral delivery to dSPNs of dorsal striatum", "assay_type": "in vivo, mouse", "conditions": "for open-field turning, +HTP mice / open-field turning, ddHTP mice: 10:1 mixture with Alexa488.1DART.2 infused into left dorsal striatum", "procedure": "Mice: For behavioral experiments, mice strains included Drd1A-Cre (GENSAT EY262). For slice experiments, Drd1A-Cre were used. Mice were singly housed post-surgery, in a 12-hour reverse light cycle, with food and water provided ad libitum. Recombinant adeno-associated viral (rAAV) vectors.\nBehavioral assays: Assays were performed at least 3 weeks after viral injection to allow for recombinant protein expression. Mice were acclimated to head-fixation for 3 consecutive days prior to behavioral experiments. Reagents were infused into the brain via the cranial cannula. Immediately following infusion, mice were placed into open-field chambers (27 cm×27 cm) in the dark, and behavior was recorded using infrared video.\nThese advances were combined in a mouse locomotor assay. AAV-DIO-^+HTPGPI or AAV-DIO-ddHTPGPI were expressed in the left dorsal striatum of D1-Cre mice, and implanted a unilateral cannula. Three weeks later, a baseline open-field behavior (saline infusion) was obtained; followed one week later by infusion of a 10:1 mixture of YM90K.1DART.2/Alexa488.1DART.2 (FIG. 3A). Mice were perfused for histology 24 hrs later, and quantitative measurement of the integrated Alexa capture over the dorsal striatum was performed. The magnitude of open-field turning vs dye capture (FIG. 3C) was then plotted A control was also performed as above using DART.1 and non-DART fluorescent dye (fluorogold) (FIG. 3B and FIG. 3D). Three points merit emphasis. […] Second, the data yielded a tight correlation between behavioral effects and histology; in particular the four animals with the weakest behavioral impact corresponded to those with little dye capture, providing an unbiased parameter with which to exclude these animals due to technical failure. Such a correlation was not seen with the original technology, despite efforts to estimate cannula patency with a non-DART fluorescent tracer. Third, in these behaving mice, YM90K.1DART.2 was substantially more efficacious than its predecessor, driving a 3-fold larger impact in a locomotor assay following unilateral delivery to dSPNs of the dorsal striatum (FIG. 3E and FIG. 3F). Experiments in acute striatal brain slice confirmed the performance boost afforded by DART.2. Low-dose, YM90K.1DART.2 produced rapid AMPAR antagonism on +HTP neurons, achieving half-block after only 5 min of a 0.3 µM dose. This represents a ˜10-fold acceleration in comparison to its predecessor, which required 15 min of a 1 µM dose to achieve a similar block. Neither reagent produced any measurable impact on −HTP or ddHTP neurons at these doses. However, only YM90K.1DART.2 offered kinetics fast enough for routine slice physiology experiments."}, "[2]": {"test_system": "AMPAR", "test": "acute striatal brain slice electrophysiology, AMPAR antagonism", "assay_type": "cell-based, mouse", "procedure": "Electrophysiology. Preparation of Brain slices: Mice (8-10 weeks) were injected AAV10 HaloTag™-dTomato to striatum or ventral tegmental area (VTA). After 3-5 weeks, mice were deeply anesthetized with isoflurane and euthanized by decapitation. Coronal brain slices ([…]) containing striatum or VTA were prepared by standard methods using a Vibratome (Leica, VT 1200S), in ice-cold high sucrose cutting solution containing (in mM) 220 sucrose, 3 KCl, 1.25 NaH2PO4, 25 NaHCO3, 12 MgSO4.7H2O, 10 glucose, and 0.2 CaCl2) bubbled with 95% O2 and 5% CO2. […]\nWhole-cell patch-clamp recording: The brain slices or retinas were perfused with bubbled aCSF at 29-30° C. with a 2 ml/min flow rate. […] Series resistance was monitored using 5-10 mV hyperpolarizing step throughout the experiment, and cells were discarded if series resistance changed more than ˜15% during the experiment. […] Statistical significance was determined using Student's t or one-way or two-way ANOVA tests. eIPSCs or eEPSCs decay time constants were obtained by fitting a single-exponential function, I(t)=I exp(−t/T)+ISS, where I(t) is the amplitude of the current at time t and ISS is the steady-state current, I is instantaneous current subtracted from Iss, and t is the time constant of decay. […]"}}}
{"smiles": "COc1cc(CCCCl)ccc1CCOCCNC(=O)c1ccc(CNC(=O)CCOCCOCCOCCOCCOCCOCCOCCOCCOCCOCCOCCOCCOCCOCCOCCOCCOCCOCCOCCOCCOCCOCCOCCOCCOCCOCCOCCOCCOCCOCCOCCOCCOCCOCCOCCOCCn2cc(COCCOCCOCCOCCOCCOCCNC(=O)CCCn3c(=O)c(=O)[nH]c4cc([N+](=O)[O-])c(-n5ccnc5)cc43)nn2)cc1", "note": "[YM90K.1DART.2]", "values": [{"measurement": "open-field turning, +HTP mice", "setting": "[1]", "value": "a turning bias in +HTP mice was seen"}, {"measurement": "open-field turning, ddHTP mice", "setting": "[1]", "value": "no turning bias"}, {"measurement": "open-field turning, +HTP mice", "setting": "[1]; listed as YM90K.1^DART.2", "value": "turned in proportion to dye capture"}, {"measurement": "open-field turning, ddHTP mice", "setting": "[1]; listed as YM90K.1^DART.2", "value": "little turning"}, {"measurement": "impact in locomotor assay / behavioral potency in comparison to predecessor", "setting": "[1]; unilateral delivery to dSPNs of the dorsal striatum", "value": 3, "unit": "fold"}, {"measurement": "acceleration in comparison to predecessor", "setting": "[2]", "value": "~10", "unit": "fold"}, {"measurement": "time to half-block of AMPAR", "setting": "[2]; +HTP neurons, 0.3 µM dose", "value": 5, "unit": "min"}]}
